Earlier results, collected in US6663884B2, “Method of detoxifying the egg of puffer fish for creating healthy foodstuffs and the resulting product” (priority 2002, dated 2003).

In the case of NC1=N[C@H](O)[C@H]2[C@H]3O[C@]4(O)O[C@@H]([C@@H](O)[C@@]2(N1)[C@@H]4O)[C@]3(O)CO [tetrodotoxin], the solubility in water is given as “soluble in water”.
